From the supplement of paper PMC10307832

Legend:
Assay in all cases: relative viability (nuclei count vs DMSO), 5 days (fraction); higher = more cells survive
Gemcitabine + Trametinib = compound: Nc1ccn([C@@H]2O[C@H](CO)[C@@H](O)C2(F)F)c(=O)n1 [Gemcitabine] + CC(=O)Nc1cccc(-n2c(=O)n(C3CC3)c(=O)c3c(Nc4ccc(I)cc4F)n(C)c(=O)c(C)c32)c1 [Trametinib] (partner 0.02 µM)
Outline: (§1)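 One day after seeding in 1536-well plates, lung cancer cell lines were dosed by pin tool. Dosing was either single-drug or a fixed anchor-drug dose plus five library-drug doses (not always all listed) in √10 steps. After 5 days, nuclei were stained in one fix-and-stain step and counted on 4× images, and relative viability is the nuclei count of treated wells over that of vehicle wells, given as the median of duplicate plates.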

Gemcitabine + OSI-027 = compound: Nc1ccn([C@@H]2O[C@H](CO)[C@@H](O)C2(F)F)c(=O)n1 [Gemcitabine] + COc1cccc2cc(-c3nc([C@H]4CC[C@H](C(=O)O)CC4)n4ncnc(N)c34)[nH]c12 [OSI-027] (partner 0.5 µM)
Outline: as §1

Gemcitabine + Lapatinib = compound: Nc1ccn([C@@H]2O[C@H](CO)[C@@H](O)C2(F)F)c(=O)n1 [Gemcitabine] + CS(=O)(=O)CCNCc1ccc(-c2ccc3ncnc(Nc4ccc(OCc5cccc(F)c5)c(Cl)c4)c3c2)o1 [Lapatinib] (partner 2 µM)
Outline: as §1

Gemcitabine + Linsitinib = compound: Nc1ccn([C@@H]2O[C@H](CO)[C@@H](O)C2(F)F)c(=O)n1 [Gemcitabine] + C[C@]1(O)C[C@@H](c2nc(-c3ccc4ccc(-c5ccccc5)nc4c3)c3c(N)nccn32)C1 [Linsitinib] (partner 1 µM)
Outline: as §1

Row | Cell Line | relative viability (Gemcitabine + Trametinib; first compound 0.001 µM) | relative viability (Gemcitabine + Trametinib; first compound 0.003162 µM) | relative viability (Gemcitabine + Trametinib; first compound 0.01 µM) | relative viability (Gemcitabine + Trametinib; first compound 0.03162 µM) | relative viability (Gemcitabine + Trametinib; first compound 0.1 µM) | relative viability (Gemcitabine + OSI-027; first compound 0.001 µM) | relative viability (Gemcitabine + OSI-027; first compound 0.003162 µM) | relative viability (Gemcitabine + OSI-027; first compound 0.01 µM) | relative viability (Gemcitabine + OSI-027; first compound 0.03162 µM) | relative viability (Gemcitabine + OSI-027; first compound 0.1 µM) | relative viability (Gemcitabine + Lapatinib; first compound 0.001 µM) | relative viability (Gemcitabine + Lapatinib; first compound 0.003162 µM) | relative viability (Gemcitabine + Lapatinib; first compound 0.01 µM) | relative viability (Gemcitabine + Lapatinib; first compound 0.03162 µM) | relative viability (Gemcitabine + Lapatinib; first compound 0.1 µM) | relative viability (Gemcitabine + Linsitinib; first compound 0.001 µM) | relative viability (Gemcitabine + Linsitinib; first compound 0.003162 µM) | relative viability (Gemcitabine + Linsitinib; first compound 0.01 µM) | relative viability (Gemcitabine + Linsitinib; first compound 0.03162 µM) | relative viability (Gemcitabine + Linsitinib; first compound 0.1 µM)
1 | 201T | 0.753 | 0.714 | 0.736 | 0.691 | 0.324 | 0.653 | 0.747 | 0.122 | 0.146 | 0.114 | 0.981 | 1.04 | 1.03 | 0.942 | 0.537 | 1.07 | 1.06 | 1.06 | 0.663 | 0.339
2 | A549 |  |  |  |  |  |  |  |  |  |  | 0.967 | 0.747 | 0.249 | 0.0488 | 0.033 | 0.705 | 0.356 | 0.0342 | 0.0143 | 0.0157
3 | A-427 | 0.704 | 0.799 | 0.521 | 0.356 | 0.223 | 0.401 | 0.338 | 0.148 | 0.17 | 0.113 | 1.09 | 0.686 | 0.808 | 0.199 | 0.13 | 1.06 | 1.03 | 0.895 | 0.209 | 0.138
4 | ABC-1 |  |  |  |  |  | 0.364 |  | 0.218 | 0.252 | 0.116 | 1.14 | 1.2 | 0.95 | 0.88 | 0.664 | 0.92 | 1.01 | 0.689 | 0.286 | 0.243
5 | BEN | 1.02 | 0.615 | 0.311 | 0.245 | 0.226 | 0.299 | 0.274 | 0.174 | 0.167 | 0.167 | 0.625 | 0.529 | 0.197 | 0.112 | 0.108 | 1.07 | 0.653 | 0.255 | 0.11 | 0.0904
6 | CAL-12T | 0.234 | 0.356 | 0.323 | 0.223 | 0.193 | 0.645 | 0.47 | 0.451 | 0.152 | 0.13 | 0.786 | 0.65 | 0.396 | 0.264 | 0.181 | 0.777 | 0.859 | 0.567 | 0.256 | 0.169
7 | COR-L23 | 0.584 | 0.656 | 0.248 | 0.116 | 0.099 | 0.955 | 0.627 | 0.264 | 0.0984 | 0.101 | 1.02 | 0.896 | 0.72 | 0.105 | 0.105 | 1.19 | 0.954 | 0.467 | 0.0831 | 0.0803
8 | COR-L 105 | 0.418 | 0.463 | 0.364 | 0.367 | 0.345 | 0.763 | 0.72 | 0.311 | 0.295 | 0.226 | 0.362 | 0.355 | 0.314 | 0.302 | 0.269 | 0.88 | 0.734 | 0.6 | 0.278 | 0.269
9 | Calu-6 |  |  |  |  |  |  |  |  |  |  | 1.03 | 0.799 | 0.348 | 0.167 | 0.126 | 0.948 | 0.618 | 0.234 | 0.129 | 0.0919
10 | ChaGo-K-1 | 0.897 | 0.757 | 0.461 | 0.189 | 0.155 | 0.516 | 0.458 | 0.212 | 0.185 | 0.164 |  |  |  |  |  |  |  |  |  | 
11 | EBC-1 |  |  |  |  |  |  |  |  |  |  | 0.15 | 0.187 | 0.176 | 0.181 | 0.167 | 0.777 | 0.369 | 0.142 | 0.0966 | 0.115
12 | EKVX | 0.394 | 0.243 | 0.13 | 0.161 | 0.11 | 0.773 | 0.719 | 0.391 | 0.147 | 0.122 | 0.238 | 0.354 | 0.111 | 0.116 | 0.12 | 1.07 | 0.727 | 0.541 | 0.188 | 0.118
13 | EMC-BAC-2 | 0.938 | 0.941 | 0.524 | 0.284 | 0.273 | 0.422 | 0.423 | 0.212 | 0.214 | 0.223 | 0.923 | 0.979 | 0.86 | 0.198 | 0.159 | 0.797 | 0.822 | 0.751 | 0.191 | 0.154
14 | EPLC-272H | 0.301 | 0.301 | 0.248 | 0.18 | 0.106 | 0.334 | 0.298 | 0.159 | 0.136 | 0.105 | 1.08 | 0.257 | 0.664 | 0.19 | 0.0848 | 1.21 | 1.18 | 0.883 | 0.673 | 0.0949
15 | H3255 | 0.608 | 0.517 | 0.514 | 0.318 | 0.271 | 0.353 | 0.366 | 0.394 | 0.26 | 0.248 | 0.223 | 0.235 | 0.221 | 0.138 | 0.159 | 0.954 | 0.644 | 0.762 | 0.233 | 0.145
16 | HARA | 0.592 | 0.635 | 0.797 | 0.143 | 0.107 | 0.734 | 0.68 | 0.388 | 0.175 | 0.0508 | 0.77 | 0.836 | 0.794 | 0.604 | 0.137 | 1.05 | 1.01 | 0.832 | 0.293 | 0.0949
17 | HCC-15 | 0.369 | 0.383 | 0.363 | 0.196 | 0.0914 | 0.773 | 0.624 | 0.578 | 0.142 | 0.0829 | 0.918 | 0.88 | 0.829 | 0.55 | 0.121 | 0.981 | 0.893 | 0.848 | 0.217 | 0.0888
18 | HCC-44 | 1.11 | 1.02 | 1.02 | 0.895 | 0.42 | 0.562 | 0.352 | 0.357 | 0.178 | 0.155 | 1.01 | 0.98 | 0.897 | 0.477 | 0.17 | 0.628 | 0.672 | 0.589 | 0.166 | 0.143
